The values below come from ChEMBL document CHEMBL3886609, “Piperidylpyrimidine derivatives as modulators of protein kinase inhibitors and of vascular endothelial growth factor receptor 2” (2016).

The test addresses Vascular endothelial growth factor receptor 2 (Homo sapiens, UniProt P35968). In words: VEGFR2 Kinase Assay: Biochemical KDR kinase assays were performed in 96 well microtiter plates that were coated overnight with 75 ug/well of poly-Glu-Tyr (4:1) in 10 mM Phosphate Buffered Saline (PBS), pH 7.4. The coated plates were washed with 2 mls per well PBS+0.05% Tween-20 (PBS-T), blocked by incubation with PBS containing 1% BSA, then washed with 2 mls per well PBS-T prior to starting the reaction. Reactions were carried out in 100 uL reaction volumes containing 2.7 uM ATP in kinase buffer (50 mM Hepes buffer pH 7.4, 20 mM MgCl2, 0.1 mM MnCl2 and 0.2 mM Na3VO4). Test compounds were reconstituted in 100% DMSO and added to the reaction to give a final DMSO concentration of 5%. Reactions were initiated by the addition 20 ul per well of kinase buffer containing 200-300 ng purified cytoplasmic domain KDR protein (BPS Bioscience, San Diego, Calif.). Following a 15 minute incubation at 30° C., the reactions were washed 2 mls per well PBS-T. 100 ul of a monoclonal anti-phosphotyrosine antibody-peroxidase conjugate diluted 1:10,000 in PBS-T was added to the wells for 30 minutes. Following a 2 mls per well wash with PBS-Tween-20, 100 ul of 0-Phenylenediamine Dihydrochloride in phosphate-citrate buffer, containing urea hydrogen peroxide, was added to the wells for 7-10 minutes as a colorimetric substrate for the peroxidase. […].

pIC50: −log10 of the molar value.

Chain of Vascular endothelial growth factor receptor 2 (P35968 whole entry, the tested form may be a part): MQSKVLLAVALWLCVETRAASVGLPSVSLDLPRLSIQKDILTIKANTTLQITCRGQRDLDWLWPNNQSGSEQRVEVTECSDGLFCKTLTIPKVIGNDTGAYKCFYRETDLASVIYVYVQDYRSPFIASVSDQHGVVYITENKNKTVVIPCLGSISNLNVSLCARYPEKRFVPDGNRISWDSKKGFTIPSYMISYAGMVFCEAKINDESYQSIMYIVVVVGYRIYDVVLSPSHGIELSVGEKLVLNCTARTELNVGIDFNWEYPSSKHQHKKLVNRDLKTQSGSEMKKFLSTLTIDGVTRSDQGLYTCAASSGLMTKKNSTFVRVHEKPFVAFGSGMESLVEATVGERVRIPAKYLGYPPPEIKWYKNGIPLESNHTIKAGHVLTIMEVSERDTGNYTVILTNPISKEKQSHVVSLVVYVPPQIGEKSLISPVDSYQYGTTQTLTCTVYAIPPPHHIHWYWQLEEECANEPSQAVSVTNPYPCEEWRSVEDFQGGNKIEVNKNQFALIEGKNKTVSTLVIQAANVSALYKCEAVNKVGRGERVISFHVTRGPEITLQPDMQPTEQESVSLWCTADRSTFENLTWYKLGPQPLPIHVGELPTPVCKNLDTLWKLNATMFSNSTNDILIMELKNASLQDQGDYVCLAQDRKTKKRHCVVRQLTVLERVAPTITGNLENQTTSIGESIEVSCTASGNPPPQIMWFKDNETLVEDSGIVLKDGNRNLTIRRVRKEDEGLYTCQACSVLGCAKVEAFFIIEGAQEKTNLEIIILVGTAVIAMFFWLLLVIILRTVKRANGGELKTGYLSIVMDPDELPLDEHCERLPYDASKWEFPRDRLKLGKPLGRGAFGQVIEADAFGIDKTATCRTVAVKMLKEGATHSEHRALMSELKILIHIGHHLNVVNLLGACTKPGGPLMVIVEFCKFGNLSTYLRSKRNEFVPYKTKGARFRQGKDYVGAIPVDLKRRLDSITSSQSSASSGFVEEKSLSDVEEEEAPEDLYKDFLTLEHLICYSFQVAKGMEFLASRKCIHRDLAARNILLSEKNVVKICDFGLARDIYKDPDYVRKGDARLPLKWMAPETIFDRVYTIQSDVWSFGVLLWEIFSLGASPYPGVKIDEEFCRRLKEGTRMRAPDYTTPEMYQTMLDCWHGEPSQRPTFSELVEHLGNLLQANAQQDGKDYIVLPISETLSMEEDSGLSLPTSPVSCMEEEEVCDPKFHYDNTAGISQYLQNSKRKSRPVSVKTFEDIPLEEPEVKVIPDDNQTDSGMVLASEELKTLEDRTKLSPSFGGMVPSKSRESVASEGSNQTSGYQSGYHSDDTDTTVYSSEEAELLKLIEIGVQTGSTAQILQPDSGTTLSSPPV

By pIC50 is commonly meant the IC50 on a negative log10 scale, so that one unit is a factor of ten. Low readings indicate a high IC50, high ones a low IC50. Regarding `O=C(c1cccnc1)N1CCc2nc(Nc3ccsc3)ncc2C1`, the pIC50 was 7.96.
